# From ChEMBL document CHEMBL4507262, “Data for DCP probe A-1596586” (2021)
# What was measured:
# [1] = biological target: Homeodomain-interacting protein kinase 4 (Homo sapiens) (UniProt Q8NE63); details: Compound concentration 1000.0 nM
# [2] = biological target: Proto-oncogene tyrosine-protein kinase receptor Ret (Homo sapiens) (UniProt P07949); details: Compound concentration 1000.0 nM
# [3] = biological target: G protein-coupled receptor kinase 3 (Homo sapiens) (UniProt P35626); details: Compound concentration 1000.0 nM
# [4] = biological target: Tyrosine-protein kinase JAK2 (Homo sapiens) (UniProt O60674); details: Compound concentration 1000.0 nM
# [5] = biological target: Tyrosine-protein kinase JAK3 (Homo sapiens) (UniProt P52333); details: Compound concentration 1000.0 nM
# [6] = system: Receptor-type tyrosine-protein kinase FLT3 (Homo sapiens), P36888 [D835Y]; details: Compound concentration 1000.0 nM
# [7] = biological target: Serine/threonine-protein kinase MARK1 (Homo sapiens) (UniProt Q9P0L2); details: Compound concentration 1000.0 nM
# [8] = biological target: Cyclin-dependent kinase 4 (Homo sapiens) (UniProt P11802); details: Compound concentration 1000.0 nM
# [9] = biological target: Glycogen synthase kinase-3 alpha (Homo sapiens) (UniProt P49840); details: Compound concentration 1000.0 nM
# [10] = biological target: Mitogen-activated protein kinase kinase kinase 6 (Homo sapiens) (UniProt O95382); details: Compound concentration 1000.0 nM
# [11] = system: Receptor-type tyrosine-protein kinase FLT3 (Homo sapiens), P36888 [UNDEFINED MUTATION]; details: Compound concentration 1000.0 nM
# [12] = biological target: Serine/threonine-protein kinase Nek3 (Homo sapiens) (UniProt P51956); details: Compound concentration 1000.0 nM
# [13] = biological target: D(1A) dopamine receptor (Homo sapiens) (UniProt P21728); details: Compound concentration 10.0 uM
# [14] = biological target: Eukaryotic translation initiation factor 2-alpha kinase 1 (Homo sapiens) (UniProt Q9BQI3); details: Compound concentration 1000.0 nM
# [15] = biological target: Cyclin-dependent kinase-like 3 (Homo sapiens) (UniProt Q8IVW4); details: Compound concentration 1000.0 nM
# [16] = biological target: Casein kinase I isoform gamma-1 (Homo sapiens) (UniProt Q9HCP0); details: Compound concentration 1000.0 nM
# [17] = biological target: Calcium/calmodulin-dependent protein kinase type 1G (Homo sapiens) (UniProt Q96NX5); details: Compound concentration 1000.0 nM
# [18] = system: Tyrosine-protein kinase ABL1 (Homo sapiens), P00519 [Q252H]; details: Compound concentration 1000.0 nM
# [19] = biological target: Receptor tyrosine-protein kinase erbB-3 (Homo sapiens) (UniProt P21860); details: Compound concentration 1000.0 nM
# [20] = biological target: Tyrosine-protein kinase Fyn (Homo sapiens) (UniProt P06241); details: Compound concentration 1000.0 nM
# [21] = biological target: Hormonally up-regulated neu tumor-associated kinase (Homo sapiens) (UniProt P57058); details: Compound concentration 1000.0 nM
# [22] = biological target: Serine/threonine-protein kinase Nek1 (Homo sapiens) (UniProt Q96PY6); details: Compound concentration 1000.0 nM
# [23] = biological target: Sigma intracellular receptor 2 (Homo sapiens, UniProt Q5BJF2); test: GPCRScan assay: inhibition of Sigma 2; set-up: radioligand conc. used [nm] 5.0, parental cells HEKT
# [24] = biological target: cAMP-dependent protein kinase catalytic subunit PRKX (Homo sapiens) (UniProt P51817); details: Compound concentration 1000.0 nM
# [25] = biological target: Sodium-dependent dopamine transporter (Homo sapiens) (UniProt Q01959); test: dopamine transporter (h) Eurofins-Cerep binding assay; set-up: ligand concentration 4 nM; details: filed as antagonist, Compound concentration 10.0 uM
# [26] = biological target: Phosphatidylinositol 4,5-bisphosphate 3-kinase catalytic subunit alpha isoform (Homo sapiens) (UniProt P42336); details: Compound concentration 1000.0 nM
# [27] = biological target: 5-hydroxytryptamine receptor 7 (Homo sapiens) (UniProt P34969); test: 5-HT7 (h) Eurofins-Cerep binding assay; set-up: ligand concentration 4 nM; details: filed as agonist, Compound concentration 10.0 uM
# [28] = biological target: Mitogen-activated protein kinase kinase kinase kinase 4 (Homo sapiens) (UniProt O95819); details: Compound concentration 1000.0 nM
# [29] = system: Phosphatidylinositol 4,5-bisphosphate 3-kinase catalytic subunit alpha isoform (Homo sapiens), P42336 [H1047L]; details: Compound concentration 1000.0 nM
# [30] = biological target: T1, Muscarinic acetylcholine receptor M4 (Homo sapiens) (UniProt P08173); test: M4 (h) Eurofins-Cerep binding assay; set-up: ligand concentration 0.2 nM; details: filed as antagonist, Compound concentration 10.0 uM
# T1 sequence (whole entry): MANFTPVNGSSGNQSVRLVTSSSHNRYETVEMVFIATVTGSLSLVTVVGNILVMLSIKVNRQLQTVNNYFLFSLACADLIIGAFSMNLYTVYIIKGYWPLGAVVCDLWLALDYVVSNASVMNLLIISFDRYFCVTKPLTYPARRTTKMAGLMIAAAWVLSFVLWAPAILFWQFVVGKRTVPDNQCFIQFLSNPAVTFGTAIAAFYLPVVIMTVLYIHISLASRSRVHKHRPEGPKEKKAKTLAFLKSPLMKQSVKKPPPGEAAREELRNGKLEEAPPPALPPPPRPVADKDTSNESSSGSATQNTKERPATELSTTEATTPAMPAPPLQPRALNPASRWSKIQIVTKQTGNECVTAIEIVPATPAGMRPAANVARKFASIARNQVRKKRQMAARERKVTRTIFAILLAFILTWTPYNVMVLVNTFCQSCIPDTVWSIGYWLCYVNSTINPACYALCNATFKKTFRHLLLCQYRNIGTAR
# [31] = biological target: Casein kinase I isoform delta (Homo sapiens) (UniProt P48730); details: Compound concentration 1000.0 nM
# [32] = biological target: Tyrosine-protein kinase TXK (Homo sapiens) (UniProt P42681); details: Compound concentration 1000.0 nM
# [33] = biological target: Histamine H2 receptor (Homo sapiens) (UniProt P25021); test: H2 (h) Eurofins-Cerep binding assay; set-up: ligand concentration 0.075 nM; details: filed as antagonist, Compound concentration 10.0 uM
# [34] = biological target: Cyclin-dependent kinase 4 (Homo sapiens) (UniProt P11802); details: Compound concentration 1000.0 nM; remark: listed apart in the source
# [35] = biological target: Serine/threonine-protein kinase Nek2 (Homo sapiens) (UniProt P51955); details: Compound concentration 1000.0 nM
# [36] = system: Epidermal growth factor receptor (Homo sapiens), P00533 [L858R,T790M]; details: Compound concentration 1000.0 nM
# [37] = biological target: Serine/threonine-protein kinase PAK 2 (Homo sapiens) (UniProt Q13177); details: Compound concentration 1000.0 nM
# [38] = biological target: Serine/threonine-protein kinase Sgk2 (Homo sapiens) (UniProt Q9HBY8); details: Compound concentration 1000.0 nM
# Cyclin-dependent kinase 4 (Homo sapiens), sequence (P11802 whole entry): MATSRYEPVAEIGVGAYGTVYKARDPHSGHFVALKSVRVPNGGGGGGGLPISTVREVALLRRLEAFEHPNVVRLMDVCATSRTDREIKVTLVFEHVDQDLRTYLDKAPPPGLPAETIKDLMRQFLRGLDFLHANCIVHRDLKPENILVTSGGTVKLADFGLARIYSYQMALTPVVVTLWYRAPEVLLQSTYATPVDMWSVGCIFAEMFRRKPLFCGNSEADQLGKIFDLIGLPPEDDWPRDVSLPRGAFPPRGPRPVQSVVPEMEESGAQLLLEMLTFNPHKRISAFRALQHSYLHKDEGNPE
# Eukaryotic translation initiation factor 2-alpha kinase 1 (Homo sapiens), sequence (Q9BQI3 whole entry): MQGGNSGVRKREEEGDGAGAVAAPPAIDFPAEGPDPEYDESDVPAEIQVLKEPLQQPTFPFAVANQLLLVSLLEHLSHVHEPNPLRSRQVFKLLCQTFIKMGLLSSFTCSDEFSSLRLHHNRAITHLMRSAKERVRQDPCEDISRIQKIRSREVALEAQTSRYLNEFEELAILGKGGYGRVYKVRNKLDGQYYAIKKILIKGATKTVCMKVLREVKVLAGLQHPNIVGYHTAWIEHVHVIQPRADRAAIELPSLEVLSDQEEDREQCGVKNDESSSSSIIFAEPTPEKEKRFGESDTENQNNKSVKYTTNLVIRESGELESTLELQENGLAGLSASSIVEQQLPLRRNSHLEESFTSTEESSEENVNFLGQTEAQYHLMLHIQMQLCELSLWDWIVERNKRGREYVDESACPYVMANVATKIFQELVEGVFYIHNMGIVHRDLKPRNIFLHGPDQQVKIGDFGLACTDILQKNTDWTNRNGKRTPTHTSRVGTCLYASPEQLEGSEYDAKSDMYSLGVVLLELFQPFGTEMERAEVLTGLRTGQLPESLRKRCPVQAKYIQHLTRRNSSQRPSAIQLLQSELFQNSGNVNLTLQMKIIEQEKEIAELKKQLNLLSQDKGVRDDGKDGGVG
# Hormonally up-regulated neu tumor-associated kinase (Homo sapiens), sequence (P57058 whole entry): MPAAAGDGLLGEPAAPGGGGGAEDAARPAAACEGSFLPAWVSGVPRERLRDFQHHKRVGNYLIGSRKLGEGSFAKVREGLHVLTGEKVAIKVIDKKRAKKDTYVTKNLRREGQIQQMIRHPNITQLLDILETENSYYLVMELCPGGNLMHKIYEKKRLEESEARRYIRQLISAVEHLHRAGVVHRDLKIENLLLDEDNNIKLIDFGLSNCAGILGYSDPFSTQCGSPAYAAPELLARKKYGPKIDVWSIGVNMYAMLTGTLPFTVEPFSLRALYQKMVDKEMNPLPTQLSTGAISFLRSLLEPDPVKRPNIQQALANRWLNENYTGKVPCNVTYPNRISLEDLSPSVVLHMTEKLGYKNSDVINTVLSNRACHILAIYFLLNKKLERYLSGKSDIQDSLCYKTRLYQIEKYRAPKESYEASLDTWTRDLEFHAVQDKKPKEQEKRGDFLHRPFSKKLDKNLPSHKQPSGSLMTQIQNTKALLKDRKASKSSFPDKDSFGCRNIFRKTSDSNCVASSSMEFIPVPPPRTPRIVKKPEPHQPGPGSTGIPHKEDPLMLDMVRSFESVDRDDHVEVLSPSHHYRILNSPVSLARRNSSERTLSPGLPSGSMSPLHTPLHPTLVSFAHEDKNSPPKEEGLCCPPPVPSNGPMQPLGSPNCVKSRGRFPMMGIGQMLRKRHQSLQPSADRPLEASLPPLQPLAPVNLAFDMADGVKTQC
# Serine/threonine-protein kinase MARK1 (Homo sapiens), sequence (Q9P0L2 whole entry, looked up): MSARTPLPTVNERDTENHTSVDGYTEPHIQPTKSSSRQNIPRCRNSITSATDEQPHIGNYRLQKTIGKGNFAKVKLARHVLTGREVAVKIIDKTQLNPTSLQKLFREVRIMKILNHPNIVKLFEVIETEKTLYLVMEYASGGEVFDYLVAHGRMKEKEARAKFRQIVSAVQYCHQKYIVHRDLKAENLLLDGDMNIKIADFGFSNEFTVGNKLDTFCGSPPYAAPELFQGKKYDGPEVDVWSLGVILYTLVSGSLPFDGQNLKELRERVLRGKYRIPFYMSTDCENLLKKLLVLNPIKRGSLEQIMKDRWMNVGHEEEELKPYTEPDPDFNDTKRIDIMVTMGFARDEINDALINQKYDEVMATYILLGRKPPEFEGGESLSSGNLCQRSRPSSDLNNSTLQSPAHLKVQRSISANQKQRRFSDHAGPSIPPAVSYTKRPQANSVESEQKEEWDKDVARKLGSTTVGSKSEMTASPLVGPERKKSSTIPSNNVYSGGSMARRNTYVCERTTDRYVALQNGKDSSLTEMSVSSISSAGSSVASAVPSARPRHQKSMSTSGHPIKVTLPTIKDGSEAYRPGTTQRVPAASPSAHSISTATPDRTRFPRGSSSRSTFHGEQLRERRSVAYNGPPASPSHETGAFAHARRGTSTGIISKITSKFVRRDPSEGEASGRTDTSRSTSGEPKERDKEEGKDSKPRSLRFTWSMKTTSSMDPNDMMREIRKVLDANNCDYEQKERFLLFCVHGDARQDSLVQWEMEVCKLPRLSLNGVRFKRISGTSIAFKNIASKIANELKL
# Tyrosine-protein kinase TXK (Homo sapiens), sequence (P42681 whole entry): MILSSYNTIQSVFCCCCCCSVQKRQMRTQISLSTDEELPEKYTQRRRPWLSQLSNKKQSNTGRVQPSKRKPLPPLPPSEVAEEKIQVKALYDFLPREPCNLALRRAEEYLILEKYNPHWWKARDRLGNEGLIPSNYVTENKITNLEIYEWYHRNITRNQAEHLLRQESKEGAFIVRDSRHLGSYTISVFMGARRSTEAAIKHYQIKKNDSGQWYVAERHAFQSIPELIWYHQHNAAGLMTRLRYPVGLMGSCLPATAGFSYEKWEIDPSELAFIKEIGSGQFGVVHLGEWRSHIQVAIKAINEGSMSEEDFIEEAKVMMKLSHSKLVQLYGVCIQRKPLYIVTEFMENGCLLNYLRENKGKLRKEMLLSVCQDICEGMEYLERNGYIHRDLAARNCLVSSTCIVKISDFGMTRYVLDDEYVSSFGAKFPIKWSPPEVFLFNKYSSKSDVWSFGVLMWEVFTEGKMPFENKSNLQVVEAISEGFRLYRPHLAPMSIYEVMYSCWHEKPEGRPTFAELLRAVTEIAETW
# Serine/threonine-protein kinase Nek3 (Homo sapiens), sequence (P51956 whole entry): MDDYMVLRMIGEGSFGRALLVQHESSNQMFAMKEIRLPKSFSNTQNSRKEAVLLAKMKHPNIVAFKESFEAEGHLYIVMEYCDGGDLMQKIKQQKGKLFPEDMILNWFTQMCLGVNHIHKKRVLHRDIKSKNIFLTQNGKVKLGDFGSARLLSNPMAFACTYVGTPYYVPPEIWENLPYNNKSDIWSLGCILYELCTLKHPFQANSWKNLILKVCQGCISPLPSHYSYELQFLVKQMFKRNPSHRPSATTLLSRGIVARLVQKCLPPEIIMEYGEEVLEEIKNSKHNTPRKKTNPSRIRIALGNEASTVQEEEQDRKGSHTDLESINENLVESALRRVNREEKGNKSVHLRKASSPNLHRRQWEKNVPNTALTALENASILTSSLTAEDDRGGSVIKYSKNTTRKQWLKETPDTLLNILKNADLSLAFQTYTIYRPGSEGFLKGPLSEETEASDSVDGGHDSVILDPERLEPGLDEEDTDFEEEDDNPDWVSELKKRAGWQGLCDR
# Proto-oncogene tyrosine-protein kinase receptor Ret (Homo sapiens), sequence (P07949 whole entry): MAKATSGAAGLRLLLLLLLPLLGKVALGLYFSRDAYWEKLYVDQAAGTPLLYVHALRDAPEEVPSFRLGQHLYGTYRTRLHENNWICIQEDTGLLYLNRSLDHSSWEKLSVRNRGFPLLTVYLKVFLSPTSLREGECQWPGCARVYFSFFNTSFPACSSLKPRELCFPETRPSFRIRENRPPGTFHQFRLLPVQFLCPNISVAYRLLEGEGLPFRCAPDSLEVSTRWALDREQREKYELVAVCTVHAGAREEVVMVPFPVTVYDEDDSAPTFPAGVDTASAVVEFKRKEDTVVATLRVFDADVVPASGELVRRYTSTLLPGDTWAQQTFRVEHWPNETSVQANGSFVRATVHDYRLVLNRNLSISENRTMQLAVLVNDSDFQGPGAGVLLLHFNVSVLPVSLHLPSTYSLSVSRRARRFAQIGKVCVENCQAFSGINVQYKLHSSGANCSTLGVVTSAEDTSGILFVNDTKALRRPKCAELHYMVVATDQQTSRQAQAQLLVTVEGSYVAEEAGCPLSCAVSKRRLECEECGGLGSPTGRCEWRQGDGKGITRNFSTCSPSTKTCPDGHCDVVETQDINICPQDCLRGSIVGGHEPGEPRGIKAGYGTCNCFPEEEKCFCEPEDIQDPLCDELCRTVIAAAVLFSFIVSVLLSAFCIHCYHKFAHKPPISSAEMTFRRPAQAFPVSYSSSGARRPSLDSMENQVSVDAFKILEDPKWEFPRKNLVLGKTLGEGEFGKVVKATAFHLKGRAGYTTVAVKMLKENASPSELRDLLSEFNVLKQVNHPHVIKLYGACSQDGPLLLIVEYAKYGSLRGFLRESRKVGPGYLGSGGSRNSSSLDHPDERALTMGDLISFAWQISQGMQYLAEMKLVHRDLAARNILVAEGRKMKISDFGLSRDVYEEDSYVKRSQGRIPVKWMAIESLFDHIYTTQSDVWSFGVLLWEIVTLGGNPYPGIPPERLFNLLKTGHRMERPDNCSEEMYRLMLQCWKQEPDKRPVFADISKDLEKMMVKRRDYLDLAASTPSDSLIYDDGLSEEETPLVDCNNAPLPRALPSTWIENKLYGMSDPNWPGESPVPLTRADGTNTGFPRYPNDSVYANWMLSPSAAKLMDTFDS
# Histamine H2 receptor (Homo sapiens), sequence (P25021 whole entry): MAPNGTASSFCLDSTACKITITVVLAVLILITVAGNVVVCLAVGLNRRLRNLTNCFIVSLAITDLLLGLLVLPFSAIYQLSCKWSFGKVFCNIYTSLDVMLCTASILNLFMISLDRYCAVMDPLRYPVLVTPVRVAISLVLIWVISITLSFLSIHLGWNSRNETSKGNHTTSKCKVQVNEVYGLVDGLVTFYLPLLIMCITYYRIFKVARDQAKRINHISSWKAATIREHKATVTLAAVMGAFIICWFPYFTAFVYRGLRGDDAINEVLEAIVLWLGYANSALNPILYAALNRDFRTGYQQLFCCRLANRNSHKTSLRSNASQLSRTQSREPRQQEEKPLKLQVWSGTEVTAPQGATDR
SMILES,residual activity [1] [%],residual activity [2] [%],residual activity [3] [%],residual activity [4] [%],residual activity [5] [%],residual activity [6] [%],residual activity [7] [%],residual activity [8] [%],residual activity [9] [%],residual activity [10] [%],residual activity [11] [%],residual activity [12] [%],inhibition [13] [%],residual activity [14] [%],residual activity [15] [%],residual activity [16] [%],residual activity [17] [%],residual activity [18] [%],residual activity [19] [%],residual activity [20] [%],further results
COc1ccc2c(c1)O[C@H](c1ccc(OC)c(OC)c1)C[C@@H]2NC(=O)C1(c2ccc3c(c2)OC(F)(F)O3)CC1 [A-1596584],91,100,100,98,100,100,79,96,100,81,87,90,35.1,100,97,100,100,100,92,100,residual activity [21]: 72%; residual activity [22]: 100%; Ki [23]: 0.584 µM; residual activity [24]: 100%; % Inhibition of Control Specific Binding (Mean n=2) [25]: 25.8%; residual activity [26]: 82%; % Inhibition of Control Specific Binding (Mean n=2) [27]: -6.4%; residual activity [28]: 100%; residual activity [29]: 100%; % Inhibition of Control Specific Binding (Mean n=2) [30]: -3.9%; residual activity [31]: 92%; residual activity [32]: 95%; % Inhibition of Control Specific Binding (Mean n=2) [33]: -14.1%; residual activity [34]: 100%; residual activity [35]: 100%; residual activity [36]: 96%; residual activity [37]: 100%; residual activity [38]: 100%
COc1ccc2c(c1)O[C@@H](c1ccc(OC)c(OC)c1)C[C@H]2NC(=O)C1(c2ccc3c(c2)OC(F)(F)O3)CC1 [A-1596586],51,99,75,75,88,100,100,91,100,81,76,76,29.2,98,94,99,84,93,86,96,residual activity [21]: 100%; residual activity [22]: 100%; Ki [23]: 1.19 µM; residual activity [24]: 83%; % Inhibition of Control Specific Binding (Mean n=2) [25]: 6.1%; residual activity [26]: 86%; % Inhibition of Control Specific Binding (Mean n=2) [27]: -6.3%; residual activity [28]: 100%; residual activity [29]: 77%; % Inhibition of Control Specific Binding (Mean n=2) [30]: 6.1%; residual activity [31]: 100%; residual activity [32]: 97%; % Inhibition of Control Specific Binding (Mean n=2) [33]: -18.2%; residual activity [34]: 95%; residual activity [35]: 97%; residual activity [36]: 100%; residual activity [37]: 100%; residual activity [38]: 94%
